According to patent US20130095059A1, “INHALED NO DONOR KMUPS DERIVATIVE PREVENTING ALLERGIC PULMONARY VASCULAR AND BRONCHIAL INFLAMMATION VIA SUPPRESSED CYTOKINES, INOS AND INFLAMMATORY CELL COUNTS IN ASTHMA MODEL” (priority 2007, published 2013):

Experiments:
5-HT2C receptor = target: T1, 5-HT2C receptor (Homo sapiens, UniProt P28335); experiment: Displacement of radioligand binding, 5-HT2C; conditions: [^3H]-mesulergine, human recombinant CHO-K1 cells
T1 construct: full length clones of 5-HT2A, 5-HT2B and 5-HT2C receptor were prepared from CHO-K1 cells; expressed in transfected cells; host or cells: CHO-K1
T1 sequence (P28335 33-458): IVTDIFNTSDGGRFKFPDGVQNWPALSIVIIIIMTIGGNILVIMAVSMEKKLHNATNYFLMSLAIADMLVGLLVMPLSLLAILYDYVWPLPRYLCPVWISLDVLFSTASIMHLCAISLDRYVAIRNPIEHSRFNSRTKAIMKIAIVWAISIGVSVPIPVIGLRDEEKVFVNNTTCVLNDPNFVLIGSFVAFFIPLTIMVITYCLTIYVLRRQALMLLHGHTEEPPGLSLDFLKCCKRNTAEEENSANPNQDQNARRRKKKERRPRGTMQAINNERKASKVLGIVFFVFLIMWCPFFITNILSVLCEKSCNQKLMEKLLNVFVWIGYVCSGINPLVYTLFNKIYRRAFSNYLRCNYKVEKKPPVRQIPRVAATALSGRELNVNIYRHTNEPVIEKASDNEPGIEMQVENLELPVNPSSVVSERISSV
Experimental: (§1) Displacement of Radioligand Binding Assay
(§2) As described previously, full length clones of 5-HT2A, 5-HT2B and 5-HT2C receptor were prepared from CHO-K1 cells. […] IC50 represents the concentration of competing ligand which displaces 50% of the specific binding of the radioligand. Ki values for competition curves were calculated using the Cheng-Prusoff equation (Cheng, 2001).

eNOS = experiment: Short term nebulization, eNOS expression in lung tissues; format: in vivo, BALB/c mice; conditions: nebulization 1.0˜2.5 mM, 30 mins, without ovalbumine sensitization
Experimental: […] Aerosols were generated by ultrasonic nebulizer from day 21 to 27. Mice were sacrificed on day 28, (Cataldo D D, et al., 2002). Three different experiments were performed on cohorts of 7˜14 mice per experimental condition.
(§3) The lung tissues were homogenized, washed with PBS and incubated in lysis buffer in addition to a protease inhibitor cocktail (Sigma, St. Louis, Mo.) to obtain extracts of lung proteins. A Western blot analysis was performed as described previously (Wu B N, et al., 2006). The samples were loaded to 10% SDS-PAGE gels and were separated at 120 V for 90 min. The blots were incubated with anti-eNOS antibody diluted at a ratio of 1:500, anti-sGCα1 antibody diluted at a ratio of 1:2000, anti-PKG antibody diluted at a ratio of 1:500, anti-VCAM-1 antibody diluted at a ratio of 1:500, anti-ICAM-1 antibody diluted at a ratio of 1:500, and anti-MMP-9 antibody diluted at a ratio of 1:600 overnight at 4° C. The membranes were stripped and re-blotted with anti-actin antibody (Sigma, St. Louis, Mo.) to verify the equal loading of protein in each lane.

RhoA = experiment: 5-HT-induced RhoA translocation in PASMCs; format: cell-based, Wistar rats; conditions: 24 h treatment, 1-100 μM
Experimental: Previous reports have shown that the active form of RhoA is translocated from the cytosol to the plasma membrane, where it activates Rho kinase. Therefore, the membrane/cytosol ratio of RhoA is considered a measure of RhoA activity. The cytosol and membrane protein of PASMCs were extracted with a CNM (cytosol, nuclear, membrane) kit. To assess membrane trans-location of RhoA, protein in membrane and cytosolic fractions was determined by standard Western blot analysis using mouse monoclonal anti-RhoA antibody (1:1000 dilution, Santa Cruz Biotechnology) and a peroxidase-labeled anti-mouse immunoglobulin (Ig) G antibody (1:1000 dilution, Santa Cruz Biotechnology, CA, USA). The relative density of membrane to cytosolic RhoA was determined using NIH imaging software.
(§4) The expression of RhoA/ROCK and phosphorylation of ERK1/2 and AKT kinase in PASMCs were assessed by incubating the PASMCs with 5-HT (10 μM) for 15 min (peak time for RhoA/ROCK, ERK1/2 and AKT phosphorylation) and 5-HTT for 10 min (peak time for 5-HTT) after KMUP-1 (1-100 μM) was added to the culture of PASMCs for 24 h.

PKG = experiment: Ovalbumine model, PKG expression; format: in vivo, BALB/c mice; conditions: 28-day experiment; nebulization
Experimental: In this long-term experiment, 6-8 week old BALB/c female mice were sensitized on days 1 and 8 by intra-peritoneal injection (i.p.) of ovalbumine (10 μg) (Sigma-Aldrich, Schnelldorf, Germany) adsorbed to 2 mg aluminum hydroxide (AlumInject; Perbio, Erembodegem, Belgium). Mice were divided into three groups. In Group 1, a control group was only exposed to saline nebulization by aerosol. The other 2 groups were subjected to ovalbumine (1%) nebulization. Before each challenge with ovalbumine, mice were either exposed to saline nebulization (Group 2) or KMUP-1 nebulization (5 mM) for 30 min by aerosol (Group 3).
as §3, with “The membranes were stripped and re-blotted with anti-actin antibody (Sigma, St. Louis, Mo.) to verify the equal loading of protein in each lane.” left out

iNOS = experiment: Ovalbumine model, iNOS expression; format: in vivo, BALB/c mice; conditions: 28-day experiment; nebulization
ROCK = experiment: 5-HT-induced ROCK expression in PASMCs; format: cell-based, Wistar rats; conditions: 1-100 μM, 24 h
Experimental: PASMCs were stimulated with 5-HT or not, as indicated. Cells were treated with KMUP-1 for 24 h before 5-HT stimulation. Whole lysates were collected and resolved by SDS-PAGE as previously described. Primary antibodies were anti-β-actin at: 1:10,000 dilution and anti-RhoA, anti-ROCK, antiphospho-ERK1/2, anti-phospho-AKT, anti-ERK1/2, anti-AKT, anti-5HTT, anti-5-HT2B and anti-eNOS at 1:1000. All blots were incubated with antibodies at 4° C. overnight. After being washed, the appropriate secondary antibodies were added at a dilution of 1:1000 for 1 h at room temperature. After extensive washing, blots were developed with a Super Signal enhanced chemiluminescence kit (Biorad, CA, USA) and visualized on Kodak AR film.
as §4

5-HT2B receptor = target: T2, 5-HT2B receptor (Homo sapiens, UniProt P41595); experiment: Displacement of radioligand binding, 5-HT2B
T2 construct: full length clones of 5-HT2A, 5-HT2B and 5-HT2C receptor were prepared from CHO-K1 cells; expressed in transfected cells; host or cells: CHO-K1
T2 sequence (P41595 whole entry): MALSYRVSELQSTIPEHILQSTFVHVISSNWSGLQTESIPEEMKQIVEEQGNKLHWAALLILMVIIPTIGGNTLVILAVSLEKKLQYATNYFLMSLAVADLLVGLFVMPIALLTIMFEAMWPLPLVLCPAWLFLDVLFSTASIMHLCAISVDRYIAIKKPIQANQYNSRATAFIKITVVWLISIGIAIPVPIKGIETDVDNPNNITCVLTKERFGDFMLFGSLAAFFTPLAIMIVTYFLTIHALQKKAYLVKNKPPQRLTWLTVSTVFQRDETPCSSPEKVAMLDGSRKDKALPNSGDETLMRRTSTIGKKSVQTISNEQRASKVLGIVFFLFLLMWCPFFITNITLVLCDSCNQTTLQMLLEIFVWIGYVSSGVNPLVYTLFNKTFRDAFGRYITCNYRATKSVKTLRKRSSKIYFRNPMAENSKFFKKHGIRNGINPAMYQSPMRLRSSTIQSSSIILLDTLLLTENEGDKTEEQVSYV
Experimental: as §1, §2

5-HT = experiment: Plasma 5-HT levels in MCT-treated rats (Serotonin EIA); format: in vivo, Wistar rats; conditions: MCT-PAH rats, non-treated MCT-PAH 4.2±0.7
Experimental: The experiments were performed in adult male Wistar rats (300 to 350 g) in accordance with institutional guidelines after approval by the ethical review committee. PAH development and pulmonary expression of 5-HTT were examined in rats after 60 mg/kg single injection (i.p.) of monocrotaline (MCT). To assess the potential preventive effect of KMUP-1 on MCT-induced PAH and associated proliferation, we assigned rats at random to 2 groups of 8 animals which received KMUP-1 at 5 mg/kg/day p.o or 1 mg/kg/day i.p. All treatments were given once a day for 3 weeks after a single MCT injection (60 mg/kg i.p.) (Abe et al., 2004). On day 21, rats were anesthetized and pulmonary artery blood pressure (MPAP) was recorded as previously described. Lung tissues were dissected for Western blotting and immunohistochemistry.
After MCT-treatment, rats acquired severe PAH and received sodium pentobarbital (40 mg/kg, i.p.) at day 21 for surgical anesthesia and measurement of MPAP (Chung et al., 2010). Blood samples (1.0 mL) were obtained from the heart. Blood was transferred to plastic tubes that included EDTA and was centrifuged at 100 g for 20 min. The plasma was transferred to tubes and stored at −80° C. until analysis. Plasma 5-HT levels were determined using commercially available Serotonin EIA (IBL, Minneapolis, USA). […] Results were read from a standard curve. […]

Cn1c(=O)c2c(ncn2CCN2CCN(c3ccccc3Cl)CC2)n(C)c1=O [KMUP-1, 7-[2-[4-(2-chlorophenyl)piperazinyl]ethyl]-1,3-dimethylxanthine]
IC50 (5-HT2C receptor): 408 nM | Ki (5-HT2C receptor; Cheng-Prusoff): 214 nM | eNOS expression in mice lung tissues (eNOS): dose-dependently increased | 5-HT-induced RhoA membrane association (RhoA): dose-dependently reversed | decreased PKG expression by ovalbumine sensitization (PKG): significantly reduced | increased iNOS expression by ovalbumine sensitization (iNOS): significantly reduced | 5-HT-induced ROCK (ROCK): significantly inhibited | ligand specificity of 5-HT2B receptor versus 5-HT2A and 5-HT2C receptors (5-HT2B receptor): more selective | IC50 (5-HT2B receptor; [^3H]-LSD, human recombinant CHO-K1 cells): 40 nM | Ki (5-HT2B receptor; [^3H]-LSD, human recombinant CHO-K1 cells, Cheng-Prusoff): 25.4 nM | plasma concentration of 5-HT (5-HT; 1 mg/kg i.p.): 3.2 ± 0.6 ng/mL | plasma concentration of 5-HT (5-HT; 5 mg/kg p.o.): 3.2 ± 0.5 ng/mL
